Reference: patent US10179801B2, “Truncated LYP-1 peptides and methods and compositions using truncated LYP-1 peptides” (SANFORD-BURNHAM MEDICAL RESEARCH INSTITUTE, priority 2011, dated 2019)
“Also recorded” adds a separate entry of the source. Ends that are not written are not given here. * marks the point of attachment. Biotin = O=C1N[C@H]2[C@H](CS[C@H]2CCCCC(=O)*)N1

Experiments:
tumor [1] = conditions: CGKRK by itself; cited from earlier work
NRP1 = target: T1, NRP1 (Homo sapiens, UniProt O14786); experiment: Phage binding to DU145 cells with ligand-blocking anti-NRP1; type: cell-based; conditions: 4° C.
T1 construct: endogenous in cells; host or cells: DU145 prostate carcinoma cells
T1 sequence (O14786 22-923): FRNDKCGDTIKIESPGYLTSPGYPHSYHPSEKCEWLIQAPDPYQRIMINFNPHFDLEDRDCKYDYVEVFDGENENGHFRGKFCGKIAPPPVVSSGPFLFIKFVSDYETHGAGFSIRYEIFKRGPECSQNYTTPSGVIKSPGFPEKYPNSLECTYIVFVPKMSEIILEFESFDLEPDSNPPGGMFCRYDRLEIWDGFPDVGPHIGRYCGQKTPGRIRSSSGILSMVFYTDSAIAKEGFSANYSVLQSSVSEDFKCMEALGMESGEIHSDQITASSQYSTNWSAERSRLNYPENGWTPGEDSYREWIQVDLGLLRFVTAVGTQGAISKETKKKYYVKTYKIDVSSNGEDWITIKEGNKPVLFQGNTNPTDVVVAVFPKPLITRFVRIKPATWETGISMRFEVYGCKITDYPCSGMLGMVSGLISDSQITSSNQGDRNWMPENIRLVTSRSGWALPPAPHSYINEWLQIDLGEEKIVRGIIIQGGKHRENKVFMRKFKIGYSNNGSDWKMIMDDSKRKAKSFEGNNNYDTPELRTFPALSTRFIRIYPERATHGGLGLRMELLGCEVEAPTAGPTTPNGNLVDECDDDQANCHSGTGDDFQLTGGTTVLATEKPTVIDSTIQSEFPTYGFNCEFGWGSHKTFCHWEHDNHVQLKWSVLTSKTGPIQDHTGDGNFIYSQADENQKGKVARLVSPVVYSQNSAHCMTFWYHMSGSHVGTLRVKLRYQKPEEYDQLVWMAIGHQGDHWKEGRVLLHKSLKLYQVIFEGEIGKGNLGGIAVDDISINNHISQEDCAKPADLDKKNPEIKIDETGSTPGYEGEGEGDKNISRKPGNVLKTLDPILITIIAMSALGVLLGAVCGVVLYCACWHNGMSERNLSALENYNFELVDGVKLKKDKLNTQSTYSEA
Method: To measure phage binding on cells, 2×10^5 suspended cells were incubated with 7×10^8 pfu/mL of T7 phage in DMEM/BSA 1% for 1 h at 4° C. Ligand-blocking antibodies or control goat IgG isotype (10 μg/sample) were added 30 min prior to phage incubation. The cells were washed four times with DMEM/BSA 1%, and lysed with lysogeny broth containing 1% Nonidet P-40 (LB/NP40) before phage titration.
The role of the CendR motif in the LyP-1 peptide was investigated by testing the binding of phage displaying the predicted active CendR fragment CGNKRTR (tLyP-1 for truncated LyP-1; SEQ ID NO:4) and other truncated forms of LyP-1 to cultured tumor cells. DU145 prostate carcinoma cells were used, which express NRP1, but not NRP2 (FIG. 6). As these peptides could have other receptors on the DU145 cells, inhibition of cell binding by a function-blocking anti-NRP1 antibody was used as an indicator of NRP1 dependence of phage binding. […] This is supported by recent modeling studies showing that glycine-containing peptides (G7 (SEQ ID NO:104), G3RG3 (SEQ ID NO:105), and G4RG2 SEQ ID NO:106) were able to dock in NRP1 binding pocket without major deformation of the receptor structure (Haspel et al, 2011).

p32 [2] = target: T2, p32 (Homo sapiens, UniProt Q07021); experiment: ELISA-based saturation assay of FAM-peptides on purified p32; type: binding; conditions: wells coated with 3 μg/mL p32, 37° C. 1 h
T2 sequence (Q07021 74-282): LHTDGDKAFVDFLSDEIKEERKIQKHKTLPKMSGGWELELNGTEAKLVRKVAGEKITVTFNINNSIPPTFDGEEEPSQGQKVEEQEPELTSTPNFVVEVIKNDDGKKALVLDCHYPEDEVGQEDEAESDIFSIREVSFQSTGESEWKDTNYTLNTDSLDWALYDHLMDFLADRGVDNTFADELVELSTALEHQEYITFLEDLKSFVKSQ
Method: Binding of FAM-tLyP-1 and FAM-LyP-1 to p32 was measured by an ELISA-based assay. Microtiter wells coated with 3 μg/mL of purified p32 (Fogal et al, 2008) were incubated with increasing concentrations of FAM-peptides at 37° C. for 1 h. After washing with cold PBS added with 0.01% Tween 20 and 0.2 M NaCl, fluorescence was read at 495 nm.
(§1) The MDA-MB-435 cells express the cell surface LyP-1 primary receptor p32 (Fogal et al, 2008). To test whether internalization of tLyP-1 and LyP-1 could occur through this receptor, tLyP-1 capacity to bind p32 was explored. […] Thus, only the intact LyP-1 peptide binds to p32.

p32 [3] = target: T3, p32 (Mus musculus, UniProt O35658); experiment: Affinity chromatography of 4T1 breast tumor extracts on tLyP-1; type: binding; conditions: data not shown
T3 construct: from tissue; host or cells: 4T1 breast tumor extracts (orthotopic tumors in BALB/c mice)
T3 sequence (O35658 71-278): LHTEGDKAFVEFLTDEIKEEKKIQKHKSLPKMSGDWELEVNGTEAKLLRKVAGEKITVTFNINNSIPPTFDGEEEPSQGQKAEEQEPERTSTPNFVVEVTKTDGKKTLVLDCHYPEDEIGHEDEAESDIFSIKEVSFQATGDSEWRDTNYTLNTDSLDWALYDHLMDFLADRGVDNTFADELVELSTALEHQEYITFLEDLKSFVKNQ
Description: as §1

tumor [4] = experiment: Tumor penetration of a compound co-administered with tLyP-1; type: in vivo; conditions: tLyP-1 peptide injected together with CGKRK; confocal microscopy
Description: Thus, tLyP-1 can also induce penetration of a co-administered compound.

4T1 tumors = experiment: FAM-peptide homing in 4T1 tumor bearing mice; type: in vivo, BALB/c mice; conditions: i.v., 1 h circulation
Method: To produce 4T1 tumors, BALB/c mice were orthotopically injected into the mammary fat pad with 10^6 cells suspended in 100 μL of PBS. To produce MDA-MB-435 breast tumors, BALB/C athymic nude mice were orthotopically injected into the mammary fat pad with 2×10^6 cells suspended in 100 μL of PBS.
4T1 tumor bearing BALB/c mice and MDA-MB-435 tumor bearing nude mice were intravenously injected with respectively 150 μL and 100 μL of 1 mM FAM-labeled synthetic peptides. After 1 h circulation, mice were perfused and tissues were collected and observed under UV light (Illuma—tool Bright Light System LT-9900) and processed for immunofluorescence analysis.
150 μl of 1 mM FAM-tLyP-1 or control FAM-[…] was intravenously injected into 4T1 tumor bearing mice. The peptides were allowed to circulate for 1 h and tumors and organs were collected and viewed under UV light. […] FAM-tLyP-1 (100 μl of 1 mM) was intravenously injected into MDA-MB-435 tumor bearing mice. The peptide was allowed to circulate for 45 min, and tumor and organs were collected and viewed under UV light. […] Confocal microscope images were made of the tumor and of normal organs after 1 h of FAM-tLyP-1 circulation in 4T1 tumor bearing mice.

PPC1 cells = experiment: Phage binding and internalization into PPC1 cells (confocal microscopy); type: cell-based, human; conditions: 30 min pre-incubation, increasing concentrations, phage 2 h
Method: (§2) Cells were grown on collagen I-coated coverslips (BD Biosciences) for 24-72 h. After 4% PFA fixation, cells were stained with antibodies following the same procedure as for tumor sections, and mounted in DAPI-containing mounting media. For phage binding assay, 10^9 pfu of phage in cell culture medium were incubated for 1-2 h. When neutravidin-peptide inhibitors were used, they were added to the cell medium 30 min prior to phage incubation. Neutravidin alone, at the maximum concentration used in the assay, was used as a control. Cells were examined on a Fluoview 500 confocal microscope (Olympus America).
Phage were detected by staining with anti-T7 phage polyclonal antibody. Nuclei were stained with DAPI. […] Cells were co-stained for NRP1 and nuclei were stained with DAPI. […] Non-conjugated neutravidin was used as a control. Nuclei were stained with DAPI. Cells were analyzed by confocal microscopy.

MDA-MB-435 cells = experiment: Phage binding and internalization into MDA-MB-435 cells (confocal microscopy); type: cell-based, human; conditions: 30 min pre-incubation, increasing concentrations, phage 2 h
Method: as §2
Cells were co-stained for NRP2 and nuclei were stained with DAPI. […] Non-conjugated neutravidin was used as a control. Nuclei were stained with DAPI.
Having established that tLyP-1, but not LyP-1, binds to NRP1 and NRP2, but both peptides internalize into tumor cells, it was realized that LyP-1 is converted into tLyP-1 and that the two peptides are taken up by cells through the CendR pathway. The effect of an excess of tLyP-1 on LyP-1 internalization was tested. […] After 30 min pre-incubation with increasing concentrations of neutravidin-tLyP-1 peptide, MDA-MB-435 cells were incubated with LyP-1 phage for 2 h. Phage were stained with anti-T7 antibody. Nuclei were stained with DAPI.

For CGKRK [tumor-homing peptide], the “Exit from blood vessels of peptide alone” value (tumor [1]) is listed as “unable to get out of blood vessels by itself”.
In the case of CGNK, the “Effect of ligand-blocking anti-NRP1 on phage binding to DU145 cells (in words)” value (from here on “Effect of ligand-blocking anti-NRP1”) (NRP1) is reported as “not enough to confer significant ability to bind to NRP1”.
In the case of CGNKR, the “Effect of ligand-blocking anti-NRP1” value (NRP1) is reported as “not enough to confer significant ability to bind to NRP1”.
For “CGNKRTR [tLyP-1, truncated form of LyP-1, in which CendR motif is exposed]”, the “Binding to purified p32” value (p32 [2]) was “low binding”, the “Binding of p32 from tumor extract to peptide affinity matrix” value (p32 [3]) was “no binding of p32” and the “Tumor penetration of co-injected CGKRK” value (tumor [4]) was “enhanced tumor penetration of CGKRK”.
In the case of CGNKRTRG, the “Effect of ligand-blocking anti-NRP1” value (NRP1) is reported as “mild reproducible decrease”.
For “FAM-ARALPSQRSR: control peptide, fluorescein-labeled ARALPSQRSR (not fully specified; fluorescein label)”, the “Tumor fluorescence / accumulation of FAM-peptide” value (4T1 tumors) was “did not accumulate in the tumors; also recorded: absence of fluorescence”.
For “oligomeric RPARPAR peptide: tetrameric biotinylated RPARPAR peptide conjugated with neutravidin (Biotin-RPARPAR; not fully specified (C-terminus); also: tetrameric, biotinylated, conjugated with neutravidin)”, the “Inhibition of tLyP-1 phage internalization into PPC1 cells” value (PPC1 cells) was “inhibited in a dose-dependent manner” and the “Inhibition of tLyP-1 phage binding and internalization in MDA-MB-435 cells” value (MDA-MB-435 cells) was “blocked the binding and internalization”.
